Reference: ChEMBL document CHEMBL3751778, “Synthesis and biological evaluation of novel 7-O-lipophilic substituted baicalein derivatives as potential anticancer agents” (Medchemcomm, 2015)
Activity calls are given as the source filed them. The calls are words filed in the database; no cut-off is given here.

Experiments:
[1] = Cytotoxicity against mouse BNL-CL2 cells after 48 hrs by MTT assay; assay type: cell-based; conditions: BNL CL.2, 48 h
SW480 [2] = assay: Antiproliferative activity against human SW480 cells after 48 hrs by MTT assay; assay type: functional, cell-based; conditions: SW480, 48 h
HepG2 = assay: cells; conditions: Homo sapiens, HepG2, 48 h
HT-29 [3] = assay: cells; conditions: Homo sapiens, HT-29, 48 h
Description: Antiproliferative activity against human HT-29 cells after 48 hrs by MTT assay

[4] = Antiproliferative activity against human DLD1 cells after 48 hrs by MTT assay; assay type: functional, cell-based; conditions: DLD-1, 48 h
[5] = Antioxidant activity assessed as ABTS radical scavenging activity after 6 mins by photometric analysis; assay type: physicochemical
[6] = Antioxidant activity assessed as DPPH radical scavenging activity after 30 mins by ELISA reader analysis; assay type: physicochemical
SW480 [7] = assay: Antiproliferative activity against human SW480 cells after 24 hrs by MTT assay; assay type: functional, cell-based; conditions: SW480, 24 h
SW480 [8] = assay: Cell cycle arrest in human SW480 cells assessed as accumulation at G2/M phase at 20 uM after 48 hrs by propidium iodide staining-based flow cytometric analysis (reference value: 8.57%); assay type: functional
SW480 [9] = assay: Cell cycle arrest in human SW480 cells assessed as accumulation at S phase at 20 uM after 48 hrs by propidium iodide staining-based flow cytometric analysis (reference value: 26.19%); assay type: functional
HT-29 [10] = assay: Antiproliferative activity against human HT-29 cells after 24 hrs by MTT assay; assay type: functional, cell-based; conditions: HT-29, 24 h
[11] = Antiproliferative activity against human DLD1 cells after 72 hrs by MTT assay; assay type: functional, cell-based; conditions: DLD-1, 72 h
SW480 [12] = assay: Induction of ROS generation in human SW480 cells assessed as superoxide anion level at 10 uM after 48 hrs by DHE staining-based fluorescence assay (reference value: 101.21 No_Unit); assay type: functional
SW480 [13] = assay: Antiproliferative activity against human SW480 cells after 72 hrs by MTT assay; assay type: functional, cell-based; conditions: SW480, 72 h
SW480 [14] = assay: Induction of apoptosis in human SW480 cells assessed as early apoptotic cells after 48 hrs by annexin V-FITC/propidium iodide staining-based flow cytometric analysis; assay type: functional, cell-based
SW480 [15] = assay: Induction of ROS generation in human SW480 cells assessed as superoxide anion level at 5 uM after 48 hrs by DHE staining-based fluorescence assay (reference value: 101.21); assay type: functional
SW480 [16] = assay: Cell cycle arrest in human SW480 cells assessed as accumulation at G1 phase at 5 uM after 48 hrs by propidium iodide staining-based flow cytometric analysis (reference value: 65.24%); assay type: functional
HT-29 [17] = assay: Antiproliferative activity against human HT-29 cells after 72 hrs by MTT assay; assay type: functional, cell-based; conditions: HT-29, 72 h
SW480 [18] = assay: Induction of ROS generation in human SW480 cells assessed as superoxide anion level at 20 uM after 48 hrs by DHE staining-based fluorescence assay (reference value: 101.21 No_Unit); assay type: functional
SW480 [19] = assay: Induction of apoptosis in human SW480 cells assessed as late apoptotic cells at 10 uM after 48 hrs by annexin V-FITC/propidium iodide staining-based flow cytometric analysis; assay type: functional, cell-based
SW480 [20] = assay: Induction of apoptosis in human SW480 cells assessed as early apoptotic cells at 10 uM after 48 hrs by annexin V-FITC/propidium iodide staining-based flow cytometric analysis; assay type: functional, cell-based
SW480 [21] = assay: Cell cycle arrest in human SW480 cells assessed as accumulation at S phase at 5 uM after 48 hrs by propidium iodide staining-based flow cytometric analysis (reference value: 26.19%); assay type: functional
SW480 [22] = assay: Cell cycle arrest in human SW480 cells assessed as accumulation at G1 phase at 10 uM after 48 hrs by propidium iodide staining-based flow cytometric analysis (reference value: 65.24%); assay type: functional
SW480 [23] = assay: Cell cycle arrest in human SW480 cells assessed as accumulation at G2/M phase at 10 uM after 48 hrs by propidium iodide staining-based flow cytometric analysis (reference value: 8.57%); assay type: functional
SW480 [24] = assay: Induction of apoptosis in human SW480 cells assessed as chromatin condensation at 20 uM after 48 hrs by Hoechst 33258 staining-based fluorescence microscopic analysis; assay type: functional, cell-based
SW480 [25] = assay: Induction of apoptosis in human SW480 cells assessed as nuclear shrinkage at 20 uM after 48 hrs by Hoechst 33258 staining-based fluorescence microscopic analysis; assay type: functional, cell-based
[26] = Cytotoxicity against mouse BNL-CL2 cells assessed as induction of cell death at 20 uM after 48 hrs by MTT assay; assay type: cell-based; conditions: bnl-cl2, 48 h
SW480 [27] = assay: Induction of apoptosis in human SW480 cells assessed as DNA fragmentation at 20 uM after 48 hrs by Hoechst 33258 staining-based fluorescence microscopic analysis; assay type: functional, cell-based
SW480 [28] = assay: Cell cycle arrest in human SW480 cells assessed as accumulation at S phase at 10 uM after 48 hrs by propidium iodide staining-based flow cytometric analysis (reference value: 26.19%); assay type: functional
SW480 [29] = assay: Cell cycle arrest in human SW480 cells assessed as accumulation at G1 phase at 20 uM after 48 hrs by propidium iodide staining-based flow cytometric analysis (reference value: 65.24%); assay type: functional
SW480 [30] = assay: Cell cycle arrest in human SW480 cells assessed as accumulation at G2/M phase at 5 uM after 48 hrs by propidium iodide staining-based flow cytometric analysis (reference value: 8.57%); assay type: functional
[31] = Antiproliferative activity against human DLD1 cells after 24 hrs by MTT assay; assay type: functional, cell-based; conditions: DLD-1, 24 h
SW480 [32] = assay: Induction of ROS generation in human SW480 cells after 48 hrs by DHE staining-based fluorescence assay; assay type: functional, cell-based
SW480 [33] = assay: Induction of apoptosis in human SW480 cells assessed as early apoptotic cells at 20 uM after 48 hrs by annexin V-FITC/propidium iodide staining-based flow cytometric analysis; assay type: functional, cell-based
SW480 [34] = assay: Cell cycle arrest in human SW480 cells assessed as accumulation at S phase at 50 uM after 48 hrs by propidium iodide staining-based flow cytometric analysis; assay type: functional
SW480 [35] = assay: Induction of apoptosis in human SW480 cells assessed as late apoptotic cells at 20 uM after 48 hrs by annexin V-FITC/propidium iodide staining-based flow cytometric analysis; assay type: functional, cell-based

CC(C)=CCC/C(C)=C/CC/C(C)=C/COc1cc(O)c2c(=O)cc(-c3ccccc3)oc2c1
IC50 [1]: > 20 µM | IC50 (SW480 [2]): > 20 µM | IC50 (HepG2): > 20 µM | IC50 (HT-29 [3]): > 20 µM | IC50 [4]: > 20 µM

CCCCOc1cc2oc(-c3ccccc3)cc(=O)c2c(O)c1O
IC50 [5]: 14 µM | IC50 [6]: 12.9 µM | IC50 [1]: > 20 µM | IC50 (SW480 [2]): > 20 µM | IC50 (HepG2): > 20 µM | IC50 (HT-29 [3]): 19.5 µM | IC50 [4]: > 20 µM

COc1cccc2c1C(=O)c1c(O)c3c(c(O)c1C2=O)C[C@@](O)(C(=O)CO)C[C@@H]3O[C@H]1C[C@H](N)[C@H](O)[C@H](C)O1 [DOXORUBICIN]
IC50 (SW480 [2]): 0.53 µM

CC(C)=CCC/C(C)=C/CC/C(C)=C/COc1cc2oc(-c3ccccc3)cc(=O)c2c(O)c1O
IC50 [5]: 24 µM | IC50 (SW480 [7]): > 20 µM | Activity (SW480 [8]): 6.64% | IC50 [6]: 24.6 µM | Activity (SW480 [9]): 50% | IC50 (HT-29 [10]): > 20 µM | IC50 [11]: 6.86 µM | Flu intensity (SW480 [12]): 169.24 | IC50 (SW480 [13]): 1.26 µM | Activity (SW480 [14]): Dose-dependent effect | Flu intensity (SW480 [15]): 102.13 | IC50 [1]: > 20 µM | Activity (SW480 [16]): 68.64% | IC50 (SW480 [2]): 1.15 µM | IC50 (HT-29 [17]): 15.4 µM | Flu intensity (SW480 [18]): 192.86 | Activity (SW480 [19]): Active | Activity (SW480 [20]): Active | Activity (SW480 [21]): 23.88% | IC50 (HepG2): > 20 µM | Activity (SW480 [22]): 57.2% | Activity (SW480 [23]): 9.41% | Activity (SW480 [24]): Active | IC50 (HT-29 [3]): 14.9 µM | Activity (SW480 [25]): Active | Activity [26]: < 20% | Activity (SW480 [27]): Active | IC50 [4]: 4.88 µM | Activity (SW480 [28]): 33.33% | Activity (SW480 [29]): 43.3% | Activity (SW480 [30]): 7.47% | IC50 [31]: 16.1 µM | Activity (SW480 [32]): Dose-dependent effect

Cc1c(C)c2c(c(C)c1O)CCC(C)(C(=O)O)O2 (stereo not drawn) [TROLOX]
IC50 [5]: 16.8 µM | IC50 [6]: 22.7 µM

COc1cc(O)c2c(=O)cc(-c3ccccc3)oc2c1 [TECHTOCHRYSIN]
IC50 [1]: > 20 µM | IC50 (SW480 [2]): > 20 µM | IC50 (HepG2): > 20 µM | IC50 (HT-29 [3]): > 20 µM | IC50 [4]: > 20 µM

CC(C)=CCOc1cc2oc(-c3ccccc3)cc(=O)c2c(O)c1O
IC50 [5]: 18.8 µM | IC50 [6]: 24 µM | IC50 [1]: > 20 µM | IC50 (SW480 [2]): 8.6 µM | IC50 (HepG2): > 20 µM | IC50 (HT-29 [3]): > 20 µM | IC50 [4]: > 20 µM

CC(C)=CCC/C(C)=C/COc1cc(O)c2c(=O)cc(-c3ccccc3)oc2c1
IC50 [1]: > 20 µM | IC50 (SW480 [2]): > 20 µM | IC50 (HepG2): > 20 µM | IC50 (HT-29 [3]): > 20 µM | IC50 [4]: > 20 µM

O=c1c(O)c(-c2ccc(O)c(O)c2)oc2cc(O)cc(O)c12 [QUERCETIN]
IC50 [5]: 7.26 µM | IC50 [6]: 8.41 µM

COc1c(O)cc(O)c2c(=O)cc(-c3ccccc3)oc12 [WOGONIN]
IC50 [1]: > 40 µM | IC50 (SW480 [2]): 35.1 µM | IC50 (HepG2): 37.9 µM | IC50 (HT-29 [3]): 39.6 µM | IC50 [4]: 36.9 µM

O=c1[nH]cc(F)c(=O)[nH]1 [FLUOROURACIL]
IC50 (SW480 [2]): 32.7 µM | IC50 (HepG2): 40.2 µM | IC50 (HT-29 [3]): > 100 µM

O=C1O[C@H]([C@@H](O)CO)C(O)=C1O [ASCORBIC ACID]
IC50 [5]: 18.3 µM | IC50 [6]: 27.3 µM

COc1cc2oc(-c3ccccc3)cc(=O)c2c(O)c1O
IC50 [5]: 20.2 µM | IC50 [6]: 28.4 µM | IC50 [1]: > 40 µM | IC50 (SW480 [2]): 29.4 µM | IC50 (HepG2): > 40 µM | IC50 (HT-29 [3]): > 40 µM | IC50 [4]: 30.9 µM

O=c1cc(-c2ccccc2)oc2cc(O)c(O)c(O)c12 [BAICALEIN]
IC50 [5]: 15.5 µM | IC50 (SW480 [7]): 16.9 µM | Activity (SW480 [8]): 7.95% | IC50 [6]: 17.2 µM | Activity (SW480 [9]): 27.51% | IC50 (HT-29 [10]): > 20 µM | IC50 [11]: > 20 µM | Flu intensity (SW480 [12]): 99.49 | IC50 (SW480 [13]): 11.6 µM | Activity (SW480 [14]): inactive | Flu intensity (SW480 [15]): 104.84 | Activity (SW480 [33]): Active | IC50 [1]: > 40 µM | Activity (SW480 [16]): 63.64% | IC50 (SW480 [2]): 14.1 µM | IC50 (HT-29 [17]): 18.4 µM | Flu intensity (SW480 [18]): 98.79 | Activity (SW480 [21]): 28.61% | Activity (SW480 [22]): 64.29% | Activity (SW480 [23]): 7.05% | Activity (SW480 [24]): Active | IC50 (HT-29 [3]): 18.1 µM | Activity (SW480 [25]): Active | Activity (SW480 [27]): Active | Activity (SW480 [34]): Active | IC50 [4]: 27.9 µM | Activity (SW480 [28]): 28.65% | Activity (SW480 [29]): 64.54% | Activity (SW480 [30]): 7.75% | Activity (SW480 [35]): Active | IC50 [31]: > 20 µM | Activity (SW480 [32]): Dose-dependent effect

CC(C)=CCC/C(C)=C/COc1cc2oc(-c3ccccc3)cc(=O)c2c(O)c1O
IC50 [5]: 20.4 µM | IC50 [6]: 24.3 µM | IC50 [1]: > 20 µM | IC50 (SW480 [2]): 2.84 µM | IC50 (HepG2): > 20 µM | IC50 (HT-29 [3]): 17 µM | IC50 [4]: 9.77 µM

O=c1cc(-c2ccccc2)oc2cc(O)cc(O)c12 [CHRYSIN]
IC50 [1]: > 40 µM | IC50 (SW480 [2]): 31.1 µM | IC50 (HepG2): 16.5 µM | IC50 (HT-29 [3]): 19.5 µM | IC50 [4]: 18.6 µM
